Source: patent US20020082213A1 (priority 1996, published 2002)

Key:
LC132 receptors = conditions: cited from earlier work
[1] = tested on: female albino mice (Ibm: MORO); experiment: Operant conflict test for anxiolytic effect; type: in vivo; conditions: 10 mg/kg oral, 30 minutes prior to testing

Molecule: dynorphin A
- inhibition of cyclic AMP formation (LC132 receptors): weakly inhibited

Molecule: CN1C(=O)CN=C(c2ccccc2)c2cc(Cl)ccc21 [diazepam]
- punished lever-pressing [1]: enhanced punished lever-pressing
- unpunished responding [1]: some reduction of unpunished responding
